Results on two compounds are retold here after paper PMC9312114, “Synthesis and Evaluation of Novel DNA Minor Groove Binders as Antiamoebic Agents” (Antibiotics, 2022).

Structures are written as SMILES.

The test system of series [1] is Acanthamoeba castellanii. In words: Amoebicidal assay. The format is cell-based, Acanthamoeba castellanii genotype T4 (ATCC 50492). Here is the method: Acanthamoeba castellanii genotype T4 (ATCC 50492) was cultivated in 10 mL growth medium of peptone yeast glucose (PYG) in tissue flasks (Baig, et al., 2021; Anwar, et al., 2019). The growth medium, PYG, consists of 0.75% proteose peptone, 0.75% yeast extract, and 1.5% glucose. Next, the amoebae were kept in tissue flasks and incubated at 30 °C.
To determine the compounds’ antiamoebic effects, amoebicidal assays were conducted. The 5 × 10^5 amoebae were placed in a 24-well plate and brought to a final volume of 500 µL. […] The 24-well plate was then placed in a 30 °C incubator for 24 h. Positive and negative controls were added to the assay in order to ensure reliable results. Serving as the negative control was the amoebae alone, with RPMI [4]. Meanwhile, amoebae, along with 0.25% sodium dodecyl sulphate (SDS), were used as the positive control. Through the addition of 0.1% methylene blue, live and dead amoebae were distinguished. Additionally, significant compounds were identified by conducting a Student’s t-test with a two-tailed distribution. Furthermore, the MIC50 values of three compounds were determined by using concentrations of […], 75, and 100 µM.

In series [2] the test system is Acanthamoeba castellanii. In words: Encystation assay. The format is cell-based. As to conditions: 16% glucose, 48 h, negative control 100% cysts. As for the experimental part:
The effects of the compounds on amoeba encystation were determined through the conduction of encystation assays. Briefly, 1 × 10^6 trophozoites were incubated with the compounds in a final concentration of 16% filter-sterilized glucose. Following a 48 h incubation period, 0.1% SDS was added per well for 20 min. The cysts were then counted by using a haemocytometer. To ensure accuracy, Acanthamoeba castellanii was cultured in 16% glucose, serving as the negative control.

Series [3] concerns Acanthamoeba castellanii cysts. In words: Excystation assay. The format is cell-based. As to conditions: cysts in PYG, negative control 100%, read-out: viable trophozoites (re-emergence of cysts to trophozoites). Here is the method:
Amoeba culture was suspended in 3 mL phosphate-buffered saline (PBS) and placed on non-nutrient bacteriological agar plates to allow for the growing of Acanthamoeba castellanii cysts. After two weeks, PBS was applied to plates containing amoeba cysts, which were then scraped off. The amoebae were centrifuged at 3000× g for 10 min, and the resulting pellet was resuspended in RPMI. The 5 × 10^5 cysts were then incubated in PYG, along with 50 µM of the compounds. To ensure accuracy, amoeba cysts in PYG alone were considered as the negative control, whereas amoeba cysts in RPMI alone were taken as the positive control, as the cysts would not be able to revert back to trophozoites. The amoeba trophozoites were then numbered by using a haemocytometer.

Another series has as its system HeLa cells. The series can be described thus: Cytotoxicity assay (LDH release). The format is cell-based, human. As to conditions: 50 µM, 24 h, LDH release, Triton X-100 = 100%. Here is the method:
HeLa cells were acquired from American Type Culture Collection (ATCC) of identification ATCC CCL-2, Singapore. The cells are utilized to conduct cytotoxicity and cytopathogenicity assays. Through their cultivation in complete media, the cells were grown, and then they were placed in a 95% humidifying incubator at 37 °C and 5% CO2. Complete medium comprises Roswell Park Memorial Media (RPMI), 1% penicillin–streptomycin, 1% minimum essential medium amino acids, 1% L-glutamine, and 10% fetal bovine serum (FBS). To determine the toxicity of the compounds against human HeLa cells, cytotoxicity assays were conducted. In short, HeLa cells were cultured in 96-well plates and treated with the compounds. The plate was then placed in a humidifying incubator with 95% humidity and 5% CO2, at 37 °C, for 24 h. After 24 h, the supernatant was collected, and the cytotoxicity of the compounds was determined through a cytotoxicity detection kit that measured the quantity of lactate dehydrogenase (LDH) release. Accurate results were ensured through the addition of positive and negative controls. Untreated HeLa cells served as the negative control, whereas HeLa cells treated with 1% Triton X-100 served as the positive control. Finally, the cytotoxic properties were numerically determined by following the necessary calculations: (absorbance of media from cells treated with the drugs—absorbance of media from cells of negative control)/(absorbance of media from cells of positive control—absorbance of media from cells of negative control) × 100 [19].

Series [4] concerns Acanthamoeba castellanii on HeLa cell monolayers. In words: Cytopathogenicity assay (amoeba-mediated host-cell death). The format is cell-based. As to conditions: amoebae pretreated with 50 µM for 2 h, then 24 h on HeLa cells, negative control 100%. Here is the method: Amoeba-mediated host-cell death was determined by treating 5 × 10^5 amoebae with 50 µM of compounds. The amoeba-containing plate was then placed in the incubator for 2 h at 30 °C. Following the 2 h incubation period, the treated amoebae were put on confluent HeLa cell monolayers. The plate containing the treated amoebae and HeLa cells was incubated for 24 h. Progressing the incubation period, the supernatant was collected, and the cytotoxicity was determined. Accurate results were ensured through the addition of negative and positive controls. The untreated amoebae, alone, on the cells served as the negative control, while the cells treated with Triton X-100 served as the positive control.

Another series has as its system DNA. In words: Biophysical analysis of binding with DNA. As to conditions: in words.
On the set-up of series [5]: method as in PMID 35600289. As to conditions: cited from earlier work.
On the set-up of series [6]: method as in PMID 35600289. As to conditions: pH of 7; cited from earlier work.

For `CN(C)CCCNC(=O)c1cc(NC(=O)c2cc(NC(=O)c3cc(NC(=O)c4nccn4C)cn3C)cn2C)cn1C` [MGB5, N-(5-((5-((5-((3-(dimethylamino)propyl)carbamoyl)-1-methyl-1H-pyrrol-3-yl)carbamoyl)-1-methyl-1H-pyrrol-3-yl)carbamoyl)-1-methyl-1H-pyrrol-3-yl)-1-methyl-1H-imidazole-2-carboxamide], the viability at 50 µM in the series on Acanthamoeba castellanii [1] (Acanthamoeba castellanii, 50 µM, 24 h, negative control 100%, read-out: amoeba viability) amounted to 98.4%; in series [3], 80.8%. Besides, the “activity against Acanthamoeba castellanii” value with Acanthamoeba castellanii [1] (in words) is “no activity”. Also, the cysts present in the series with Acanthamoeba castellanii [2] is given as 48.3%. Further, the “cytotoxicity against human HeLa cells” value in the series on HeLa cells is given as 10.9%. Moreover, the “amoeba-mediated host-cell death (cytotoxic activity due to amoeba)” value in series [4] amounted to 57.8%. In the series on DNA, the “ability to bind with DNA” value is “bind with DNA”.

Consider `Cn1cc(NC(=O)c2cc(NC(=O)c3ccc(/C=C/c4cnc5ccccc5c4)cc3)cn2C)cc1C(=O)NCCN1CCOCC1` [MGB-BP-3], for which the pKa in series [5] was 5.26. Further, the solubility in water result in series [6] is on record as “insoluble in water”.
